Test results from paper PMC4317639, “In Vitro Gender-Dependent Inhibition of Porcine Cytochrome P450 Activity by Selected Flavonoids and Phenolic Acids” (BioMed Research International, 2015).

Experiments:
porcine CYP2A = settings: 16 μM compound; hepatic microsomes from male and female pigs; 200 μM coumarin
Description: (§1) Microsomes were prepared with a calcium aggregation method using Tris-EDTA homogenization buffer. Experiments were performed using pools of microsomes consisting of microsomes from two individual pigs. The total microsomal protein concentration was analyzed the same day using a commercially available kit (Bio-Rad Laboratories Inc., Hercules, CA, USA) according to the manufacturer's instructions. Microsomes were diluted to a protein concentration of 10 mg/mL and stored at −80°C until analysis.
(§2) Specific CYP450 activities were determined by incubating microsomes (diluted in 0.5 M potassium phosphate buffer (pH 7.4)) and adding 0.5 mM NADPH together with one of the following selective substrates (specific CYP450 target given in parentheses): 2 μM 7-ethoxyresorufin (CYP1A), 200 μM coumarin (CYP2A), 10 μM 7-benzyloxy-4-trifluoromethylcoumarin (CYP3A), and 200 μM p-nitrophenol (CYP2E1). For kinetic studies, concentrations of 7-ethoxyresorufin varied from 0.05 to 4 μM, concentrations of p-nitrophenol varied from 2.5 to 4000 μM, and concentrations of BFC varied from 0.1 to 150 μM. The corresponding metabolites were quantified by HPLC as previously described.
(§3) For quercetin, this concentration is approximately what can be found in liver of pigs fed a single dose of a quercetin enriched diet. The stock solutions of these compounds were prepared in methanol, and the final concentration of methanol was 0.1% in the incubation volumes. The same amount of methanol was added to the control incubations. Percentage inhibitions were calculated as differences between the activities in the control incubations (arbitrarily set to 100%) and in the presence of the specific compound.

porcine CYP1A = assay: Inhibition of CYP1A activity (7-ethoxyresorufin O-deethylation) in porcine hepatic microsomes; type: in vitro ADME, pig; settings: for effect of a preincubation step on inhibition of CYP1A: 5 min preincubation with NADPH at 37°C, male and female pigs; for effect of a preincubation step on inhibition of CYP1A / Ki: inhibitor 16, 32, 128 μM; for Ki: 7-ethoxyresorufin 0.1-4 μM; for effect on CYP1A activity: 16 μM compound, hepatic microsomes from male and female pigs, 2 μM 7-ethoxyresorufin
Description: as §1
as §2, with “For kinetic studies, concentrations of 7-ethoxyresorufin varied from 0.05 to 4 μM, concentrations of p-nitrophenol varied from 2.5 to 4000 μM, and concentrations of BFC varied from 0.1 to 150 μM.” left out
as §3
(§4) For that microsomes were preincubated with the tested compound in the presence of NADPH for 5 min (CYP1A, CYP3A) or 15 min (CYP2E1) at 37°C before the addition of specific substrate. […] The incubation time and the amount of the microsomal protein were in the linear range for the rate of metabolite formation. All measurements were performed in duplicate.
(§5) Kinetic parameters (Michaelis-Menten constant K m, maximal velocity of the reaction V max, and dissociation constant for inhibitor binding K i) were estimated by fitting data to the Michaelis-Menten equation using GraphPad Prism (version 4.0 for Windows, GraphPad Software (San Diego, California, USA)). Visual inspection of the plots was used to estimate whether inhibition degree was affected by inclusion of the preincubation step.

porcine CYP2E1 = porcine CYP2E1 (Sus scrofa, UniProt P79383); assay: Inhibition of CYP2E1 activity (p-nitrophenol hydroxylation) in porcine hepatic microsomes; type: in vitro ADME, pig; settings: for effect on CYP2E1 activity: 16 μM compound
Chain of porcine CYP2E1 (P79383 whole entry): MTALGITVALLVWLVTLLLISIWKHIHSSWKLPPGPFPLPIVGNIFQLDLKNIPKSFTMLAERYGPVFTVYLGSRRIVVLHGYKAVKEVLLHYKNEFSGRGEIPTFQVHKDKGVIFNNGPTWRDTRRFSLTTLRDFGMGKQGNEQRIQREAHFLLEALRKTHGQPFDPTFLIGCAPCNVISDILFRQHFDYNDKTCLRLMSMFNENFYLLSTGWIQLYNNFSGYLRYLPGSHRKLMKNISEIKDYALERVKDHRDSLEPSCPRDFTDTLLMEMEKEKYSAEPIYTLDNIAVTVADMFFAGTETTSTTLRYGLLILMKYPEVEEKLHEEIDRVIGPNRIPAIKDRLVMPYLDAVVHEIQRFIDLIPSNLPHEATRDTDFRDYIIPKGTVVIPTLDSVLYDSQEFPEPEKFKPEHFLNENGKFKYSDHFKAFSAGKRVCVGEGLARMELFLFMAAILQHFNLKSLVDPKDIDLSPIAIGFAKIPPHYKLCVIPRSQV
Description: as §1
as §2, with “For kinetic studies, concentrations of 7-ethoxyresorufin varied from 0.05 to 4 μM, concentrations of p-nitrophenol varied from 2.5 to 4000 μM, and concentrations of BFC varied from 0.1 to 150 μM.” left out
as §3, §4, §5

porcine CYP3A = assay: Inhibition of CYP3A activity (7-benzyloxy-4-trifluoromethylcoumarin O-dealkylation) in porcine hepatic microsomes; type: in vitro ADME, pig; settings: for effect on CYP3A activity: 16 μM compound, hepatic microsomes from male and female pigs, 10 μM BFC; for reversibility of CYP3A inhibition (effect of a preincubation step): 5 min preincubation with NADPH at 37°C, male and female pigs; for Ki: pig, inhibitor 16, 32, 128 μM, BFC 0.1-150 μM
Description: as §1
as §2, with “For kinetic studies, concentrations of 7-ethoxyresorufin varied from 0.05 to 4 μM, concentrations of p-nitrophenol varied from 2.5 to 4000 μM, and concentrations of BFC varied from 0.1 to 150 μM.” left out
as §3, §4, §5

[1] = pig, pH 7.4, hepatic microsomes from female pigs
[2] = pig, pH 7.4, hepatic microsomes from male pigs
[3] = hepatic microsomes from male and female pigs, 200 μM p-nitrophenol
[4] = hepatic microsomes from female pigs

Row | SMILES | effect on CYP2A activity (porcine CYP2A) | effect on CYP2E1 activity (porcine CYP2E1; [3]) | effect on CYP3A activity (porcine CYP3A) | effect on CYP1A activity (porcine CYP1A) | further results
1 | O=c1c(O)c(-c2cc(O)c(O)c(O)c2)oc2cc(O)cc(O)c12 [myricetin] | did not affect | did not affect | decreased | – | effect of a preincubation step on inhibition of CYP1A (porcine CYP1A): did not affect; Ki (porcine CYP1A; [1]): 4.4 ± 3.4 µM; Ki (porcine CYP1A; [2]): 2.5 ± 0.9 µM; reversibility of CYP3A inhibition (effect of a preincubation step) (porcine CYP3A): reversible inhibition; Ki (porcine CYP3A; liver microsomes, pH 7.4, probe 7-benzyloxy-4-trifluoromethylcoumarin (BFC), hepatic microsomes from male pigs): 113 ± 20.8 µM
2 | COc1cc(-c2oc3cc(O)cc(O)c3c(=O)c2O)ccc1O [isorhamnetin] | did not affect | did not affect | decreased | – | effect of a preincubation step on inhibition of CYP1A (porcine CYP1A): did not affect; Ki (porcine CYP1A; [1]): 10.8 ± 2.8 µM; Ki (porcine CYP1A; [2]): 99.9 ± 77.6 µM; reversibility of CYP3A inhibition (effect of a preincubation step) (porcine CYP3A): reversible inhibition; Ki (porcine CYP3A; pH 7.4, hepatic microsomes from female pigs): 93.7 ± 61.3 µM; Ki (porcine CYP3A; pH 7.4, hepatic microsomes from male pigs): 71.2 ± 20.2 µM
3 | C[C@@H]1O[C@@H](OC[C@H]2O[C@@H](Oc3c(-c4ccc(O)c(O)c4)oc4cc(O)cc(O)c4c3=O)[C@H](O)[C@@H](O)[C@@H]2O)[C@H](O)[C@H](O)[C@H]1O [rutin] | did not alter activity | did not alter activity | did not alter activity | did not alter activity | –
4 | O=C(O)c1cc(O)c(O)c(O)c1 [gallic acid] | – | did not alter activity | did not alter activity | – | –
5 | O=C(O)/C=C/c1ccc(O)c(O)c1 [caffeic acid] | did not alter activity | did not alter activity | did not alter activity | did not alter activity | –
6 | O=c1c(O)c(-c2ccc(O)c(O)c2)oc2cc(O)cc(O)c12 [quercetin] | – | – | did not affect | – | mode of inhibition of CYP1A (porcine CYP1A; [4]): irreversible inhibition; IC50 (porcine CYP1A; pig, liver microsomes, pH 7.4, probe 7-ethoxyresorufin (2 μM), hepatic microsomes from female pigs, with 5 min preincubation with NADPH): 2.5 µM; Ki (porcine CYP1A; pig, liver microsomes, pH 7.4, probe 7-ethoxyresorufin (0.1-4 μM; O-deethylation), hepatic microsomes from male pigs): 0.16 ± 0.03 µM; effect on CYP2E1 activity (porcine CYP2E1; [4]): No effect; reversibility of CYP2E1 inhibition (effect of a preincubation step) (porcine CYP2E1; 15 min preincubation with NADPH at 37°C, male pigs): reversible inhibition; Ki (porcine CYP2E1; hepatic microsomes from male pigs, inhibitor 16, 32, 128 μM, p-nitrophenol 0.25-4000 μM): 94.2 ± 13.5 µM
7 | O=C(O)/C=C/c1ccc(O)cc1 [p-coumaric acid] | did not alter activity | did not alter activity | did not alter activity | did not alter activity | –
